# Measurements from ChEMBL document CHEMBL1158064, “Depsidones from the endophytic fungus BCC 8616” (J Nat Prod, 2006).
# Legend:
# [1] = Cytotoxicity against human BC cells by colorimetric method; format: functional, cell-based
# KB = assay: Cytotoxicity against human KB cells by colorimetric method; format: functional, cell-based
compound,measurement,setting,value
C/C=C(\C)c1cc(O)c(C)c2c1Oc1c(CO)c(O)cc(/C(C)=C/C)c1C(=O)O2,IC50,[1],> 5 µg/mL
same,IC50,KB,> 5 µg/mL
C/C=C(\C)c1cc(O)c(C)c2c1Oc1c(C=O)c(O)cc(/C(C)=C/C)c1C(=O)O2,IC50,[1],4.1 µg/mL
same,IC50,KB,6.5 µg/mL
C/C=C(\C)c1cc(O)c(C)c2c1Oc1c(COC)c(O)cc(/C(C)=C/C)c1C(=O)O2,IC50,[1],> 5 µg/mL
same,IC50,KB,> 5 µg/mL
C/C=C(\C)c1cc(OC)c(C)c2c1Oc1c(CO)c(O)cc(/C(C)=C/C(=O)O)c1C(=O)O2 [AURANTICIN A],IC50,[1],> 5 µg/mL
same,IC50,KB,> 5 µg/mL
COc1cccc2c1C(=O)c1c(O)c3c(c(O)c1C2=O)C[C@@](O)(C(=O)CO)C[C@@H]3O[C@H]1C[C@H](N)[C@H](O)[C@H](C)O1 [DOXORUBICIN],IC50,[1],0.17 µg/mL
Cc1c2ccncc2c(C)c2c1[nH]c1ccccc12 [ELLIPTECINE],IC50,[1],0.14 µg/mL
same,IC50,KB,0.21 µg/mL
